We go through nine compounds from ChEMBL document CHEMBL5532645, “Discovery of proteolysis-targeting chimera targeting undruggable proteins using a covalent ligand screening approach” (Eur J Med Chem, 2024).

Series [1] addresses T1, Protein cereblon/E3 ubiquitin-protein ligase Mdm2 (Homo sapiens) (UniProt Q00987+Q96SW2). The experiment in a line: PROTAC activity at CRBN/MDM2 in human HEK293 cells at 3 to 10 uM preincubated with MG132 for 4 hrs followed by compound addition and measured after 20 hrs by Western blot analysis. In kind it is cell-based. The settings on record: dose 3-10 µM. For orientation: Immunoblotting shows a protein as a band on a membrane.

Series [2] addresses T1, Protein cereblon/E3 ubiquitin-protein ligase Mdm2 (Homo sapiens). The series can be described thus: PROTAC activity at CRBN/MDM2 in human HEK293 cells at 3 to 10 uM preincubated with MLN4924 for 4 hrs followed by compound addition and measured after 20 hrs by Western blot analysis. In kind it is cell-based. The settings on record: dose 3-10 µM.
The target is the same in series [3]. The experiment in a line: PROTAC activity at CRBN/MDM2 in human HEK293 cells at 30 uM measured after 24 hrs Western blot analysis relative to control. In kind it is cell-based.
The target is the same in series [4]. The experiment in a line: PROTAC activity at CRBN/MDM2 in human HEK293 cells assessed as induction of MDM2 degradation measured after 24 hrs by Western blot analysis. The settings on record: dose 3-30 µM. In kind it is cell-based.
Series [5] shares this target. The experiment in a line: PROTAC activity at CRBN/MDM2 in human HEK293 cells assessed as induction of MDM2 degradation at 30 uM by Western blot analysis. In kind it is cell-based. The settings on record: time 2-24 hrs, TDE = time-dependent effect.
Series [6] has the same target. The series can be described thus: PROTAC activity at CRBN/MDM2 in human HEK293 cells assessed as maximum degradation at 10 uM measured after 24 to 48 hrs by Western blot analysis. In kind it is cell-based. The settings on record: time 24-48 hrs.
For series [7] the target is unchanged. The experiment in a line: PROTAC activity at CRBN/MDM2 in human HEK293 cells assessed as induction of MDM2 degradation at 3 to 10 uM. In kind it is cell-based. The settings on record: dose 3-10 µM.
Series [8] shares this target. The experiment in a line: PROTAC activity at CRBN/MDM2 in human HEK293 cells assessed as induction of MDM2 degradation at 30 uM measured after 2 hrs by Western blot analysis. In kind it is cell-based.
The target is the same in series [9]. The series can be described thus: PROTAC activity at CRBN/MDM2 in human HEK293 cells assessed as induction of MDM2 degradation at 30 uM measured after 24 hrs by Western blot analysis. In kind it is cell-based.
The target is the same in series [10]. The series can be described thus: PROTAC activity at CRBN/MDM2 in human HEK293 cells assessed as increase in MDM2 expression at 30 uM measured after 6 hrs by Western blot analysis. In kind it is cell-based.
The next series relates to HEK293. The experiment in a line: Cytotoxicity against HEK293 cells assessed as cell viability at 0.3 uM incubated for 24 hrs by cell counting kit 8 method. In kind it is toxicity, cell-based. The settings on record: human, hek293, 24 h. On the technique in general: Tetrazolium dyes change colour on reduction, which living cells bring about.

Calls of active or inactive are those of the source. The calls are words filed in the database; no cut-off is given here.

T1 sequence (Q00987 whole entry, looked up): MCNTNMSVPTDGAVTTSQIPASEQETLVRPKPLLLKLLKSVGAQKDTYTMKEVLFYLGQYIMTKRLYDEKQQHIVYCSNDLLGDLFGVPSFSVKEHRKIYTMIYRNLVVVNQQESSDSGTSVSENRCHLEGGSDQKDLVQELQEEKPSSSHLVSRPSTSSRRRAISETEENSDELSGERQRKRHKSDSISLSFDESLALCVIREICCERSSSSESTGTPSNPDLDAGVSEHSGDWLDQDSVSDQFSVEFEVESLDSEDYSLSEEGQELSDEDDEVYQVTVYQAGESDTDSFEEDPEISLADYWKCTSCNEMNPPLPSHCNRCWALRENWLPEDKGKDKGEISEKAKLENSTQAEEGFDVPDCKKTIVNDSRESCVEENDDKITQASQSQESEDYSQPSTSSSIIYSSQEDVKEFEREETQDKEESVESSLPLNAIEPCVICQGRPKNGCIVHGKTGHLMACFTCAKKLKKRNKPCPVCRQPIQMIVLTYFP
T1 sequence (Q96SW2 whole entry, looked up): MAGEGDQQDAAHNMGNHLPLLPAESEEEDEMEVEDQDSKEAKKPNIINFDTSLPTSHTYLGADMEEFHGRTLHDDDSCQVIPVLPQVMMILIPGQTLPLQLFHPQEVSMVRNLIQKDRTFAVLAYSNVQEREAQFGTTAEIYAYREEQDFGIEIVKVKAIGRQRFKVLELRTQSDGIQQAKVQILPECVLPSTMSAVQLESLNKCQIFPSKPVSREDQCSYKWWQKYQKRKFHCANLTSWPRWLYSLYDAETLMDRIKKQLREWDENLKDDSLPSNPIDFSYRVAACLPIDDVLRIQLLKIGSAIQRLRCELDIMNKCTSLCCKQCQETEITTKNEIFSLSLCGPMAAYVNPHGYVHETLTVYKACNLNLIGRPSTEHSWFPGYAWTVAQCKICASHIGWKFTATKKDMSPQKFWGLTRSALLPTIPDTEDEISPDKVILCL

One may read the Emax as the maximal effect, on the per cent scale that the assay sets. Consider `CN(C(=O)CCOCCNc1cccc2c1C(=O)N(C1CCC(=O)NC1=O)C2=O)C(c1ccc(F)cc1)c1cccnc1` (stereo not given), for which the outcome in [1] and in [2] was inactive. This compound gave an Emax in [3] of 31.2%. Besides, the Activity entry in series [4] was “Dose-Dependent Effect”; in [5] it was “Tde”. For the same compound, the outcome in series [6] and in [7] was Active.
For `CN1C(=O)CCC(N2C(=O)c3cccc(NCCOCCC(=O)N(C)C(c4ccc(F)cc4)c4cccnc4)c3C2=O)C1=O` (stereo not given), the Emax result in series [3] is “inactive”. For the same compound, the outcome in series [7] was inactive.
For `O=C1CCC(N2C(=O)c3ccc(NCCOCCOCCC(=O)N4CCN(c5nccc(C(F)(F)F)n5)CC4)cc3C2=O)C(=O)N1` (stereo not given), in [3], the Emax stood at 31.5%. Moreover, the outcome in series [8] and in series [10] was Active. Further, the result in series [9] was inactive.
As for `O=C1CCC(N2C(=O)c3ccc(NCCOCCC(=O)N4CCOC(c5cccc(OC(F)F)c5)C4)cc3C2=O)C(=O)N1` (stereo not given), the Emax in [3] was determined as 23.2%.
Turning to `O=C1CCC(N2C(=O)c3cccc(NCCOCCOCCC(=O)N4CCOC(c5cccc(OC(F)F)c5)C4)c3C2=O)C(=O)N1` (stereo not given), in series [3], the Emax is 28.3%. Further, in [10], the result was Active.
On to `NS(=O)(=O)OC[C@@H]1C[C@@H](n2ccc3c(N[C@H]4CCc5ccccc54)ncnc32)C[C@@H]1O` [PEVONEDISTAT], for which the Activity result in the series on HEK293 was “Non-Toxic”.
`CN(C(=O)CCOCCOCCOCCNc1cccc2c1C(=O)N(C1CCC(=O)NC1=O)C2=O)C(c1ccc(F)cc1)c1cccnc1` (stereo not given) showed an Emax in series [3] of 5.6%.
The same measure, in the same setting: for `CN(C(=O)CCOCCOCCNc1cccc2c1C(=O)N(C1CCC(=O)NC1=O)C2=O)C(c1ccc(F)cc1)c1cccnc1` (stereo not given) the value was 26.5%; for `CN(C(=O)CCOCCOCCOCCOCCNc1cccc2c1C(=O)N(C1CCC(=O)NC1=O)C2=O)C(c1ccc(F)cc1)c1cccnc1` (stereo not given), 5.5%.
